In ChEMBL document CHEMBL3988442, “University of Dundee, Small-Polar-MMV Screening Library” (2021):

Molecular target: ClpP1P2 (Mycobacterium tuberculosis (strain ATCC 25618 / H37Rv), UniProt P9WPC3+P9WPC5)
Assay: in vitro assay to detect presence of AMC directly proportional to the activity of ClpP1P2. GHDDI collaboration.
Assay type: functional

ClpP1P2, sequence (P9WPC5 whole entry): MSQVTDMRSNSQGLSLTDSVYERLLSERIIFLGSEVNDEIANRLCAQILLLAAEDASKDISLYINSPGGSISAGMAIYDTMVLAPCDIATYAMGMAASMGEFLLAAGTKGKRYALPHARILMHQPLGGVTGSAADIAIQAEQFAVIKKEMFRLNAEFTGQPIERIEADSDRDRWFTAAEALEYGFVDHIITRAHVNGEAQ
ClpP1P2, sequence (P9WPC3 whole entry): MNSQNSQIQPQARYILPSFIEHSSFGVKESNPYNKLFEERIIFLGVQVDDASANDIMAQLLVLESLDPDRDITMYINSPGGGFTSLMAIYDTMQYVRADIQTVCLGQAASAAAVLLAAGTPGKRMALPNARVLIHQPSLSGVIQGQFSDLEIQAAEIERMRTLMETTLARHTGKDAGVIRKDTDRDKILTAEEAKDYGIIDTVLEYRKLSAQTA

| SMILES | IC50 |
| --- | --- |
| Cc1cc(C)n(-c2ccc3nnc(C)n3n2)n1 | > 100 µM |
| CC1Cn2c(nc3c2c(=O)[nH]c(=O)n3C)O1 (centres undefined) | > 100 µM |
| CN(C)C(=O)CN1CCC2(CC1)CC(=O)c1ccc3ccccc3c1O2 | > 100 µM |
| CCOC(=O)CN1CCC2(CC1)CC(=O)c1ccc3ccccc3c1O2 | > 100 µM |
| Cc1nc2oc(C(=O)N3CCOCC3)c(N)c2c2c1CCCC2 | > 100 µM |
| CC(C)c1nc2oc(C(=O)N3CCOCC3)c(N)c2c2c1CCCC2 | > 100 µM |
| Cc1nc(NC(=O)CN2C(=O)c3ccccc3NC2C(C)C)sc1C (centres undefined) | > 100 µM |
| COCc1nnc(NC(=O)CN2C(=O)c3ccccc3NC2C(C)C)s1 (centres undefined) | > 100 µM |
| CC(C)C1Nc2ccccc2C(=O)N1CC(=O)Nc1nc2c(s1)CCC2 (centres undefined) | > 100 µM |
| CC(C)c1nnc(NC(=O)CN2C(=O)c3ccccc3NC2C(C)C)s1 (centres undefined) | > 100 µM |
| CC(C)Nc1oc(-c2ccc(S(=O)(=O)N(C)C)o2)nc1C#N | > 100 µM |
| CC(C)CNC(=O)c1cn(-c2ccccn2)c(=O)c2ccccc12 | > 100 µM |
| CN1C(=O)c2cccc(NC(=O)c3ccc4c(c3)OCCO4)c2C1=O | > 100 µM |
| CCc1ccc(S(=O)(=O)N2CCCC3(CCCN3S(C)(=O)=O)C2)cc1 (centres undefined) | > 100 µM |
| COCCn1cnc(-c2nc(C(=O)N3CCOCC3)c3ccccn23)c1 | > 100 µM |
| Cc1nc(-c2nc(C(=O)N3CCOCC3)c3ccccn23)cn1C(C)C | > 100 µM |
| CC(C)n1cnc(-c2nc(C(=O)N3CCN(C)CC3)c3ccccn23)c1 | > 100 µM |
| CC(C)n1cnc(-c2nc(C(=O)N3CCCC3)c3ccccn23)c1 | > 100 µM |
| CN1CCN(c2nc(O)c3c(-c4ccccn4)ccnc3n2)CC1 | > 100 µM |
| CSc1ccc(CNc2n[nH]c(C)n2)cc1 | > 100 µM |
| CCOC(=O)Cn1nnnc1-c1ccccc1 | > 100 µM |
| COc1cccc(OCCNS(=O)(=O)Cc2ccccc2)c1 | > 100 µM |
| CC(Nc1ncnc2c1NC(=O)CN2)c1ccccn1 (centres undefined) | > 100 µM |
| Cc1nn(CCNc2ncnc3c2NC(=O)CN3)c(C)c1Cl | > 100 µM |
| Cc1cc(C)n(CCNc2ncnc3c2NC(=O)CN3)n1 | > 100 µM |

| SMILES | IC50 |
| --- | --- |
| O=C1CNc2ncnc(NCc3cccs3)c2N1 | > 100 µM |
| COc1ccccc1CNc1ncnc2c1NC(=O)CN2 | > 100 µM |
| Cc1cc(C)n(CCCNc2ncnc3c2NC(=O)CN3)n1 | > 100 µM |
| CCN(CC)c1nc(C)cc(C(=O)Nc2cccc(C(N)=O)c2)n1 | > 100 µM |
| O=C(c1cnn2c(-c3ccco3)ccnc12)N1CCCCCC1 | > 100 µM |
| CC1CCN(C(=O)c2cnn3c(-c4ccco4)ccnc23)CC1 | > 100 µM |
| O=C(NC1CCCC1)c1cnn2c(-c3ccco3)ccnc12 | > 100 µM |
| Cc1cccc(NC(=O)c2ccc(OCc3nnnn3C)cc2)n1 | > 100 µM |
| CNC(=O)CNC(=O)c1ccc(-c2scnc2C)nc1 | > 100 µM |
| CNc1cncc(C2CCN(C(=O)c3coc(C)n3)CC2)n1 | > 100 µM |
| O[C@@H]1C[C@H]2CN(Cc3ccccc3)[C@H](Cc3ccccc3)CN2C1 | > 100 µM |
| Cc1ccc(-c2nc(C3CCN(C(=O)c4cnn(C)c4)CC3)no2)cn1 | > 100 µM |
| Nc1ncc(-c2ccc(Cl)cc2)c(C2CCCNC2)n1 (centres undefined) | > 100 µM |
| CNc1cncc(C2CCCN2C(=O)Cn2ccnc2C)n1 (centres undefined) | > 100 µM |
| CNc1cncc(C2CCCN2C(=O)CCn2ccnc2)n1 (centres undefined) | > 100 µM |
| CCN(CC)C(=O)CN1CCCC1c1nc(C)c2c(n1)N(C)C(=O)CC2 (centres undefined) | > 100 µM |
| c1cc(CN2CCC(c3ccnc4nccn34)C2)ccn1 (centres undefined) | > 100 µM |
| CNc1cncc(C2CCCN2C(=O)CCn2ccnc2C(C)C)n1 (centres undefined) | > 100 µM |
| CCc1nccn1CCC(=O)N1CCCC1c1cncc(NC)n1 (centres undefined) | > 100 µM |
| O=C(O)C1CN(c2cncc(Cc3ccccc3)n2)C1 | > 100 µM |
| CN(C)S(=O)(=O)N1CCC(c2n[nH]cc2-c2ccnc(N)c2)C1 (centres undefined) | > 100 µM |
| CC(C)N1CC[C@@](C)(O)[C@H](n2ccc(=O)[nH]c2=O)C1 | > 100 µM |
| O=C(O)C1CN(c2cncc(Cc3ccccc3F)n2)C1 | > 100 µM |
| Cc1ncc(CN2CCc3nc4cc(C(C)(C)C)nn4c(O)c3C2)n1C | > 100 µM |
| CC(=O)N1CCC(c2cncc(N3CCOCC3)n2)CC1 | > 100 µM |

| SMILES | IC50 |
| --- | --- |
| CCN1CCCC1CNCc1cc2cc3c(cc2[nH]c1=O)OCCO3 (centres undefined) | > 100 µM |
| c1ccc(O[C@H]2C[C@@H]3CN(Cc4cnccn4)C[C@@H]3C2)cc1 | > 100 µM |
| COCCNCc1cc2c(C)cc(C)cc2n2c(=O)n(C)nc12 | > 100 µM |
| CCOCCCNCc1cc2c(C)cc(C)cc2n2c(=O)n(C)nc12 | > 100 µM |
| COc1ccccc1-c1nc(C(=O)N(C)C)n2ccncc12 | > 100 µM |
| COc1ccccc1-c1nc(C(=O)N2CCOCC2)n2ccncc12 | > 100 µM |
| O=C(NCc1cccnc1)c1ccc2nccn2c1 | > 100 µM |
| CN(C)C(=O)c1nc(-c2ccc(S(C)(=O)=O)cc2)c2ccccn12 | > 100 µM |
| CN(C)c1cc(C(F)(F)F)cc(-c2ccc(C(=O)O)cc2)n1 | > 100 µM |
| N#Cc1cc2cc(Cl)cnc2nc1O | > 100 µM |
| CCSCCN1CCCN(S(C)(=O)=O)CC1 | > 100 µM |
| COCCN1CCC(CNc2cnc3ccccc3n2)CC1 | > 100 µM |
| Cn1c(CS(=O)(=O)c2ccc(Cl)cc2)cc(=O)n(C)c1=O | > 100 µM |
| CC(Cn1cccn1)Nc1cnc2ccccc2n1 (centres undefined) | > 100 µM |
| Cc1cnn(CC(C)Nc2cnc3ccccc3n2)c1 (centres undefined) | > 100 µM |
| Cc1cnn(CCNc2cnc3ccccc3n2)c1 | > 100 µM |
| CCN(CC(C)C#N)C(=O)CNc1cc(Cl)ccc1C(N)=O (centres undefined) | > 100 µM |
| CN1CCC(NC(=O)c2cc(Br)cc(Cl)c2O)C1=O (centres undefined) | > 100 µM |
| CCC(=O)NC1CCCN(c2cncc(OCc3ccccc3)n2)C1 (centres undefined) | > 100 µM |
| NC(=O)CC1CCCN(c2cncc(OCc3ccccc3)n2)C1 (centres undefined) | > 100 µM |
| NC(=O)CC1CCCN(c2cncc(SCc3ccccc3)n2)C1 (centres undefined) | > 100 µM |
| CCOC(=O)CN(CC(F)(F)F)C(=O)c1nc(C)n2ccccc12 | > 100 µM |
| Cc1nc(C(=O)N(CC(=O)N(C)C)CC(F)(F)F)c2ccccn12 | > 100 µM |
| CCNC(=O)C1CCCN(c2ccc3ccc(F)cc3n2)C1 (centres undefined) | > 100 µM |
| NC(=O)CCC1CCCN(c2ccc3ccc(F)cc3n2)C1 (centres undefined) | > 100 µM |

| SMILES | IC50 |
| --- | --- |
| Nc1nccnc1C(=O)NC1CCN(Cc2ccccc2)C1 (centres undefined) | > 100 µM |
| COc1ncc(NCc2ccsc2)cc1C(N)=O | > 100 µM |
| COc1ncc(NCc2cc(C#N)cs2)cc1C(N)=O | > 100 µM |
| COc1ncc(NCc2ccc(F)cc2)cc1C(N)=O | > 100 µM |
| CCN(CC)c1nc2sc(C(=O)N3CCNC(=O)C3)cc2s1 | > 100 µM |
| CN(C)c1nc2sc(C(=O)N3CCNC(=O)CC3)cc2s1 | > 100 µM |
| CC1CCC(NC(=O)CNC2(c3ccc(Br)cc3)CCOCC2)CC1 (centres undefined) | > 100 µM |
| COC(=O)N1CCC(Nc2ccc(Cl)c(C#N)n2)CC1 | > 100 µM |
| Cc1nn(C)c(C)c1C(=O)NCc1cc(N(C)C)nc2ccccc12 | > 100 µM |
| COC(=O)c1cc(OC)ccc1NCC(=O)NCC(=O)N1CCCC1 | > 100 µM |
| N#Cc1cccnc1N1CCC(OCc2ccccc2)CC1 | > 100 µM |
| Cc1cccc(CNc2cncc(-n3cccn3)n2)c1 | > 100 µM |
| Fc1cccc(CNc2cncc(-n3cccn3)n2)c1 | > 100 µM |
| Cc1cc(C)n(-c2cncc(NCCNC(=O)C3CCCC3)n2)n1 | > 100 µM |
| Cc1cc(C)n(-c2cncc(NCCNC(=O)C(C)(C)C)n2)n1 | > 100 µM |
| CCC(=O)N1CCCN(c2cncc(-n3nc(C)cc3C)n2)CC1 | > 100 µM |
| Cc1noc(CN(CCc2cccs2)Cc2cccc(C#N)c2)n1 | > 100 µM |
| c1cc2nc(C3CCNCC3)nn2cc1NC1CCC1 | > 100 µM |
| CC(C)n1c2ccccc2c2c1cc(C(=O)N(C)C)n2C(=O)N(C)C | > 100 µM |
| CC(C)n1c2ccccc2c2c1cc(C(=O)NCCO)n2C(=O)N(C)C | > 100 µM |
| CC(C)n1c2ccccc2c2c1cc(C(=O)NC1CC1)n2C(=O)N(C)C | > 100 µM |
| Cc1nc(-c2nc(C(=O)N(C)C)c3ccccn23)cn1C(C)C | > 100 µM |
| Cc1nc(-c2nc(C(=O)NC3CC3)c3ccccn23)cn1C(C)C | > 100 µM |
| CC(C)n1cnc(-c2nc(C(=O)NC3CC3)c3ccccn23)c1 | > 100 µM |
| Cn1cnc(-c2nc(C(=O)NCC3CCCO3)c3ccccn23)c1 (centres undefined) | > 100 µM |

| SMILES | IC50 |
| --- | --- |
| COCCNC(=O)c1nc(-c2cn(C)cn2)n2ccccc12 | > 100 µM |
| Cn1cnc(-c2nc(C(=O)NCCN3CCCC3)c3ccccn23)c1 | > 100 µM |
| Cn1ccc(-c2cc(C(=O)N3CCCCC3)c3ccccn23)n1 | > 100 µM |
| Cn1ccc(-c2cc(C(=O)N3CCC(C(N)=O)CC3)c3ccccn23)n1 | > 100 µM |
| Cc1nc(NCC2CC2)nc2c1COCC21CCN(C(=O)C(C)(C)C)C1 (centres undefined) | > 100 µM |
| O=C(NCC1CC1)c1c2c(N3CCCC3)ncnc2n2ccccc12 | > 100 µM |
| CCNC(=O)c1c2c(N3CCN(C)CC3)ncnc2n2ccccc12 | > 100 µM |
| O=C(NC1CCC1)c1c2c(N3CCCC3)ncnc2n2ccccc12 | > 100 µM |
| O=C(c1c2c(N3CCCC3)ncnc2n2ccccc12)N1CCCC1 | > 100 µM |
| CN1CCN(c2ncnc3c2c(C(=O)NC2CC2)c2ccccn23)CC1 | > 100 µM |
| Cc1sc2c(C3CCCNC3)nc(Nc3cccc(F)c3)n2c1C (centres undefined) | > 100 µM |
| Cc1cnc(CCNc2cccc(CC3CCCNC3)n2)s1 (centres undefined) | > 100 µM |
| CC(C)c1nn(C)c(Cl)c1CNCC(=O)N1CCN(C)CC1 | > 100 µM |
| CCc1nccn1-c1cccc(C2CCCN2)n1 (centres undefined) | > 100 µM |
| Cc1ccc(CN2C[C@@H]3[C@@H](C(=O)N4CCCC4)CCS(=O)(=O)[C@@H]3C2)cc1 | > 100 µM |
| O=C(NCCCO)c1cc(-c2cc[nH]n2)n2ccccc12 | > 100 µM |
| CN(C)C1CCN(C(=O)c2cc(-c3ccn(C)n3)n3ccccc23)CC1 | > 100 µM |
| c1ccc(CN2CCc3ncnc(-c4ccoc4)c3CC2)nc1 | > 100 µM |
| COCCN1CCc2cc(C(=O)NC(C)C)c(NCC3CC3)nc2CC1 | > 100 µM |
| Cn1cc(-c2ncc3c(c2C(=O)O)CCN(Cc2ccccn2)C3)cn1 | > 100 µM |
| O=C(NCc1ccccn1)[C@H]1COC[C@H]2CN(C3CCCC3)C[C@H]21 | > 100 µM |
| CCOCC1CN(c2ccncn2)Cc2cnn(CC)c21 (centres undefined) | > 100 µM |
| Cc1nc(CN2CCC(O)(c3ccccc3F)CC2)c2ccccn12 | > 100 µM |
| Cc1c[nH]nc1C1CCCN1Cc1nccn1C (centres undefined) | > 100 µM |
